From patent US10952999B2, “Inhibitor of cyclin-dependent kinase CDK9” (GENFLEET THERAPEUTICS (SHANGHAI) INC., priority 2017, dated 2021) come the findings set out here.

Common to all, as to assay: Cancer cell growth, Cell Titer-Glo cell viability assay, 72 hours
Holding throughout (format): cell-based

In one test the test system is hamster lung cell CHL. Particulars: for GI50: CHL, 72 hours. The source says: (§1) In the examples, we used acute myelocytic leukemia (AML) OCI-AML-3, acute promyelocytic leukemia cell line NB-4, MDS-RAEB (myelodysplastic syndrome-excess blasts type) cell line SKM-1, human leukemia cell Nomo-1, acute myeloid leukemia cell line MOLM14, acute myeloid leukemia cell line MOLM13, acute myeloid leukemia cell line MV4-11, acute myeloid leukemia cell line HL-60, acute myeloid leukemia cell line OCI-AML-2, histiocytic lymphoma U-937, acute B cell leukemia cell line MEC-1, acute B cell leukemia cell line MEC-2, acute megakaryoblastic leukemia CMK, hamster lung cell CHL, hamster ovary cell CHO, human non-small cell lung cancer cell H1975, human non-small cell lung cancer cell H358, human small cell lung cancer cell H209, human lung adenocarcinoma cell H1395, human non-small cell lung cancer cell PC-9, human lung cancer cell H3122, human non-small cell lung cancer cell H2122, human non-small cell lung cancer cell H1915, human lung adenocarcinoma cell H1355, human non-small cell lung cancer cell HCC827, human breast cancer cell MDA-MB-231, human breast cancer cell MDA-MB-468, human breast cancer cell MCF-7, human breast cancer cell T47D, human breast cancer cell SK-Br-3, the above cells were purchased from ATCC.
(§2) Cell Titer-Glo® (Promega, USA) chemical self-luminescence cell viability assay kit was used to detect the number of viable cells by quantitatively measuring ATP in living cells, according to which to calculate GI50 and IC50.

The test system of test [1] is acute myeloid leukemia cell line MV4-11. The note with it: MV4-11, 72 hours.
Source text: as §1, §2

Test [2] has as its system acute myeloid leukemia cell line OCI-AML-2. Particulars: OCI-AML2, 72 hours.
Source text: as §1, §2

Test [3] relates to acute megakaryoblastic leukemia CMK.
Source text: as §1, §2

For test [4], the system named is acute promyelocytic leukemia cell line NB-4. The note with it: NB4, 72 hours.
Source text: as §1, §2

For test [5], the system named is acute myeloid leukemia cell line HL-60. Particulars: HL-60, 72 hours.
Source text: as §1, §2

Test [6] relates to acute B cell leukemia cell line MEC-2. The note with it: MEC-2, 72 hours.
Source text: as §1, §2

Test [7] has as its system acute B cell leukemia cell line MEC-1. The note with it: MEC-1, 72 hours.
Source text: as §1, §2

The subject of another test is hamster ovary cell CHO. Particulars: for GI50: CHO, 72 hours.
Source text: as §1, §2

Test [8] relates to acute myeloid leukemia cell line MOLM13. Particulars: MOLM-13, 72 hours.
Source text: as §1, §2

The subject of test [9] is MDS-RAEB (myelodysplastic syndrome-excess blasts type) cell line SKM-1. Particulars: SKM-1, 72 hours.
Source text: as §1, §2

The test system of test [10] is acute myelocytic leukemia (AML) OCI-AML-3. Particulars: OCI-AML3, 72 hours.
Source text: as §1, §2

Test [11] has as its system human leukemia cell Nomo-1. The note with it: Nomo-1, 72 hours.
Source text: as §1, §2

Test [12] relates to histiocytic lymphoma U-937. Particulars: U-937, 72 hours.
Source text: as §1, §2

The test system of test [13] is acute myeloid leukemia cell line MOLM14. The note with it: MOLM-14, 72 hours.
Source text: as §1, §2

Test [14] has as its system human non-small cell lung cancer cell H1915. Particulars: NCI-H1915, H1915, 72 hours.
Source text: as §1, §2

Test [15] concerns human lung cancer cell H3122. The note with it: NCI-H3122, H3122, 72 hours.
Source text: as §1, §2

Test [16] has as its system human breast cancer cell MCF-7. Particulars: MCF7, MCF-7, 72 hours.
Source text: as §1, §2

The subject of test [17] is human small cell lung cancer cell H209. The note with it: NCI-H209, H209, 72 hours.
Source text: as §1, §2

Test [18] has as its system human breast cancer cell T47D.
Source text: as §1, §2

Test [19] has as its system human lung adenocarcinoma cell H1355. The note with it: NCI-H1355, H1355, 72 hours.
Source text: as §1, §2

Test [20] has as its system human lung adenocarcinoma cell H1395. The note with it: NCI-H1395, H1395, 72 hours.
Source text: as §1, §2

Test [21] has as its system human non-small cell lung cancer cell H1975. The note with it: NCI-H1975, H1975, 72 hours.
Source text: as §1, §2

Test [22] relates to human non-small cell lung cancer cell H358. Particulars: NCI-H358, H358, 72 hours.
Source text: as §1, §2

Test [23] concerns human breast cancer cell SK-Br-3. The note with it: SK-Br-3, 72 hours.
Source text: as §1, §2

In test [24] the test system is human non-small cell lung cancer cell H2122. The note with it: NCI-H2122, H2122, 72 hours.
Source text: as §1, §2

Test [25] concerns human non-small cell lung cancer cell HCC827. The note with it: HCC827, 72 hours.
Source text: as §1, §2

Test [26] relates to human non-small cell lung cancer cell PC-9. The note with it: PC-9, 72 hours.
Source text: as §1, §2

The subject of test [27] is human breast cancer cell MDA-MB-468. The note with it: MDA-MB-468, 72 hours.
Source text: as §1, §2

In test [28] the test system is human breast cancer cell MDA-MB-231. Particulars: MDA-MB-231, 72 hours.
Source text: as §1, §2

Take `COCCN[C@H]1CC[C@H](Nc2cc(-c3csc(OCC4CCOCC4)n3)c(Cl)cn2)CC1` [Compound 16, (1r,4r)-N^1-(5-chloro-4-(2-((tetrahydro-2H-pyran-4-yl)methoxy)thiazol-4-yl)pyridin-2-yl)-N^4-(2-methoxyethyl)cyclohexane-1,4-diamine]: the 50% growth inhibitory concentration (GI50) worked out at 3300 nM in the test with hamster lung cell CHL; 630 nM in test [1] (Homo sapiens); 2100 nM in test [2] (Homo sapiens); 1400 nM in test [3]; 580 nM in [4]; 450 nM in test [5] (Homo sapiens). In addition, the GI50 is 970 nM in [6] (MEC2); 1400 nM in test [7] (Homo sapiens, MEC1); 1300 nM in the test on hamster ovary cell CHO; 570 nM in test [8] (Homo sapiens); 500 nM in test [9] (Homo sapiens); 630 nM in [10] (Homo sapiens, OCI-AML-3). For the same compound, the concentration for 50% growth inhibition (GI50) came to 1500 nM in test [11] (Homo sapiens), 600 nM in [12] (Homo sapiens) and 620 nM in [13] (Homo sapiens).

Regarding `COCCN[C@H]1CC[C@H](Nc2cc(-c3csc(SCC4CCOCC4)n3)c(Cl)cn2)CC1` [Compound 17, (1r, 4r)-N^1-(5-chloro-4-(2-(((tetrahydro-2H-pyran-4-yl)methyl)mercapto)thiazol-4-yl)pyridin-2-yl)-N^4-(2-methoxyethyl)cyclohexane-1,4-diamine], the GI50 with hamster lung cell CHL was 5600 nM; in test [1] it was 1100 nM; in test [2] it was 800 nM; in [3], 1100 nM; in test [4], 350 nM; in test [5], 160 nM. Moreover, the GI50 came to 700 nM in test [6]; 800 nM in [7]; 610 nM with hamster ovary cell CHO; 340 nM in [8]; 330 nM in test [9]; 980 nM in [10]. Further, the concentration for 50% growth inhibition (GI50) in test [11] was determined as 930 nM; in [12], 300 nM; in test [13] it was 360 nM.

For the compound `COCCN[C@H]1CC[C@H](Nc2cc(-c3csc(NCC4CCOCC4)n3)ccn2)CC1` [Compound 18, (1r,4r)-N^1-(2-methoxyethyl)-N^4-(4-(2-(((tetrahydro-2H-pyran-4-yl)methyl)amino)thiazol-4-yl)pyridin-2-yl)cyclohexane-1,4-diamine], the concentration for 50% growth inhibition (GI50) in the test with hamster lung cell CHL worked out at 1200 nM; in [1] (Homo sapiens) it was 910 nM; in test [2] (Homo sapiens) it was 1100 nM; in test [3] it was 4000 nM; in test [4], 1300 nM; in [5] (Homo sapiens), 980 nM. The GI50 stood at 1700 nM in [6] (MEC2); 2500 nM in test [7] (Homo sapiens, MEC1); 4100 nM with hamster ovary cell CHO; 1200 nM in test [8] (Homo sapiens); 1100 nM in [9] (Homo sapiens); 2100 nM in test [10] (Homo sapiens, OCI-AML-3). Besides, the 50% growth inhibitory concentration (GI50) was 3000 nM in test [11] (Homo sapiens), 1100 nM in test [12] (Homo sapiens) and 1200 nM in test [13] (Homo sapiens).

Take `CCc1cnn2c(NCc3ccc[n+]([O-])c3)cc(N3CCCC[C@H]3CCO)nc12` [Dinaciclib, reference compound]: the GI50 came to 180 nM in the test on hamster lung cell CHL; 7.6 nM in test [1] (Homo sapiens); 13 nM in test [2] (Homo sapiens); 9.9 nM in [3]; 10 nM in test [4]; 8 nM in test [5] (Homo sapiens). Also, the concentration for 50% growth inhibition (GI50) in test [6] (MEC2) came to 10 nM; in test [7] (Homo sapiens, MEC1), 11 nM; in the test with hamster ovary cell CHO, 160 nM; in test [8] (Homo sapiens) it was 3.3 nM; in test [9] (Homo sapiens), 10 nM; in test [10] (Homo sapiens, OCI-AML-3), 11 nM. In addition, the results for the GI50 in test [11] (Homo sapiens), in test [12] (Homo sapiens) and in test [13] (Homo sapiens) were 34 nM, 3.6 nM and 4.5 nM, respectively.

With `NC1CCC(Nc2cc(-c3cccc(NCc4cccc(F)c4)n3)c(Cl)cn2)CC1` (centres unmarked) [HY-16462, reference compound], the “inhibitory effect on normal cell CHL (in words)” value with hamster lung cell CHL (CHL cells) was “certain inhibitory effects”. Also, the concentration for 50% growth inhibition (GI50) with hamster lung cell CHL is 200 nM; in test [1], 27 nM; in [2] it was 71 nM; in [3], 42 nM; in test [4] it was 32 nM; in test [5] it was 37 nM. In addition, the concentration for 50% growth inhibition (GI50) in [6] was 36 nM; in test [7] it was 48 nM; in the test with hamster ovary cell CHO, 290 nM; in [8], 32 nM; in test [9], 40 nM; in [10], 47 nM. Moreover, the 50% growth inhibitory concentration (GI50) in test [11] was determined as 63 nM; in [12] it was 31 nM; in test [13], 33 nM. Besides, in the test with hamster ovary cell CHO (CHO cells), the “inhibitory effect on normal cell CHO (in words)” value is given as “certain inhibitory effects”.

For `CC(=O)c1c(C)c2cnc(Nc3ccc(N4CCNCC4)cn3)nc2n(C2CCCC2)c1=O` [Palbociclib, reference compound], the IC50 in [14] is 3600 nM; in [15], 1200 nM; in [16], 1700 nM; in [17], above 10000 nM; in [18], 4100 nM; in [19], around 10000 nM. In addition, the 50% inhibitory concentration (IC50) is above 10000 nM in [20]; above 10000 nM in test [21]; 6600 nM in test [22]; 3200 nM in test [23]; 1600 nM in test [24]; above 10000 nM in [25]. The figures for the IC50 in test [26], in test [27] and in test [28] were above 10000 nM, 2700 nM and 5100 nM, respectively.

The GI50 is the concentration giving 50% growth inhibition. As usually defined, the IC50 is the concentration that gives 50% inhibition.
